Measured values from patent US10807960B2, “Compounds, compositions, and methods for controlling biofilms” (KATHOLIEKE UNIVERSITEIT LEUVEN, priority 2015, dated 2020).
Where two headings read alike, the source gives them in different places.

Tests used:
[1] = system: eukaryotic tumor cell lines; conditions: as previously reported; cited from earlier work
bone cells = conditions: as previously reported; cited from earlier work
E. coli TG1 = assay: static peg (Calgary Biofilm Device) anti-biofilm assay, crystal violet and OD600; conditions: 37° C.
[2] = system: E. coli TG1 + P. aeruginosa PA14; assay: mixed E. coli/P. aeruginosa biofilm assay, crystal violet; format: cell-based; conditions: 37° C. (Table 3)
Method: Overnight cultures of E. coli TG1 and P. aeruginosa PA14, were diluted 1/100 in the same vial of TSB 1/20 to form a mixed culture suspension.

P. gingivalis ATCC33277 = assay: static peg (Calgary Biofilm Device) anti-biofilm assay, crystal violet and OD600; conditions: 37° C.
Caenorhabditis elegans = conditions: as previously reported; cited from earlier work
S. aureus SH1000 = assay: static peg (Calgary Biofilm Device) anti-biofilm assay, crystal violet and OD600; conditions: 37° C.
[3] = read-out: BIC50, biofilm formation
[4] = mixed biofilm formation, read-out: BIC50
[5] = planktonic growth of mixed culture, read-out: IC50

| Structure (SMILES) | toxicity (in words) [1] | toxicity (in words) (bone cells) | IC50 (E. coli TG1; planktonic growth) [µM] | IC50 (E. coli TG1; [3]) [µM] | IC50 [2, 4] [µM] | IC50 [2, 5] [µM] | IC50 (P. gingivalis ATCC33277; planktonic growth) [µM] | IC50 (P. gingivalis ATCC33277; [3]) [µM] | toxicity (in words) (Caenorhabditis elegans) | IC50 (S. aureus SH1000; planktonic growth) [µM] | IC50 (S. aureus SH1000; [3]) [µM] |
| --- | --- | --- | --- | --- | --- | --- | --- | --- | --- | --- | --- |
| CCCCCCCCn1c(-c2ccc(Cl)cc2)cnc1N [Compound 2] | strong toxicity | strong toxicity | 7.7 | ~6.5 | 36.8 | 19.9 | 6 | 3.9 | strong toxicity | 8.3 | 3.4 |
| Clc1ccc(-c2cnc(NC3CCCC3)[nH]2)cc1 [Compound 5] |  |  | 17.1 | ~45.7 | 0.5 | > 400 | 4 | 5.7 |  | 71.5 | 70.6 |
| CC(C)CNc1ncc(-c2ccc(Cl)cc2)[nH]1 [Compound 3] |  |  | 30 | 110 | 7.4 | > 400 | 5.1 | 5.3 |  | ~175 | ~200 |
